Source: patent publication US9295651B2, “Nanoconjugates and nanoconjugate formulations” (priority 2009, dated 2016)

Tests used:
[1] = Lyophilization of PLGA-mPEG NPs in the presence of lyoprotectants, reconstitution with water, DLS; format: physicochemical; set-up: key to Aggr. (visible large aggregates): Y = aggregates observed; N = no aggregates observed; conditions: for Size in nm: PLGA-mPEG NPs lyophilized and reconstituted; for prevention of NP aggregation during lyophilization (in words): PLGA-mPEG5k NPs, lyoprotectant/NP mass ratio up to 10
Protocol: Lyophilization of PLGA-mPEG NPs in the presence of lyoprotectants. An acetone solution of PLGA-mPEG (5 mg/mL, 100 μL) was added dropwise into a vigorously stirred water solution (4 mL) containing the NCs to make the PLGA-mPEG NPs. A lyoprotectant was added to the vigorously stirred NC solution at the selected lyoprotectant/NC mass ratio (varying from 2 to 20). The solution was then lyophilized, reconstituted with 2 mL water and stirred for 5 minutes. The sizes of the resulting NCs were analyzed by DLS.

[2] = system: LLC tumors; assay: Tumor prevention/inhibition study, LLC cells co-injected subcutaneously with test article; format: in vivo, C57B1/6 female mice; conditions: at 25 days, 5 mg/kg in 1:1 Cremophor EL/ethanol
Protocol: To access the ability of paclitaxel-loaded nanoparticles to inhibit establishment of lung cancer in an in vivo model mimicking microscopic disease that can remain when the surgical margin is close to the tumor, Ptxl-PLA NCs were evaluated in a rapidly growing subcutaneous tumor model. Specifically, the ability of Ptxl-PLA NCs to prevent establishment of rapidly growing LLC tumors in C57B1/6 female mice compared to Ptxl alone (in a clinical formulation) and controls without any drugs was assessed. In these experiments, 1,000,000 LLC tumor cells plus Ptxl-LA25/PLGA-mPEG nanoparticles containing a total dose of 5 or 50 mg/kg incorporated Ptxl were injected subcutaneously into the flank of a mouse. Other groups received the injection of 1,000,000 LLC cells alone or LLC cells mixed with Ptxl solubilized with 1:1 Cremophor EL/ethanol as used clinically at 5 mg/kg dosage.

Compound	Size in nm ([1]; lyoprotectant/NP mass ratio 2) [nm]	Size in nm ([1]; lyoprotectant/NP mass ratio 10) [nm]	Aggr. (visible large aggregates) ([1]; lyoprotectant/NP mass ratio 2)	Aggr. (visible large aggregates) ([1]; lyoprotectant/NP mass ratio 10)	Distr. No. (number of particle size distributions) ([1]; lyoprotectant/NP mass ratio 10)	PDI ([1]; lyoprotectant/NP mass ratio 10)	SL/SO (ratio of lyophilized NP size to pre-lyophilized NP size) ([1]; lyoprotectant/NP mass ratio 10)	prevention of NP aggregation during lyophilization (in words) [1]	Distr. No. (number of particle size distributions) ([1]; lyoprotectant/NP mass ratio 2)	PDI ([1]; lyoprotectant/NP mass ratio 2)	SL/SO (ratio of lyophilized NP size to pre-lyophilized NP size) ([1]; lyoprotectant/NP mass ratio 2)	tumors at injection site [2]
OC[C@H]1O[C@H](O[C@H]2[C@H](O)[C@@H](O)C(O)O[C@@H]2CO)[C@H](O)[C@@H](O)[C@@H]1O (mixture of isomers) [Maltose]	>1000	220.4	Y	Y	2	0.288	3.54	–	–	–	–	–
CCCCCCCCCCCCOS(=O)(=O)[O-].[Na+] [SDS, sodium dodecyl sulfate]	–	>1000	–	Y	–	–	–	unable to prevent NP aggregation	–	–	–	–
CC(=O)O[C@H]1C(=O)[C@@]2(C)[C@H]([C@H](OC(=O)c3ccccc3)[C@]3(O)C[C@H](OC(=O)[C@H](O)[C@@H](NC(=O)c4ccccc4)c4ccccc4)C(C)=C1C3(C)C)[C@]1(OC(C)=O)CO[C@@H]1C[C@@H]2O [paclitaxel]	–	–	–	–	–	–	–	–	–	–	–	large tumors were noted

Further lines, with some results ahead:

Size in nm ([1]; lyoprotectant/NP mass ratio 2) [nm]	Size in nm ([1]; lyoprotectant/NP mass ratio 10) [nm]	Aggr. (visible large aggregates) ([1]; lyoprotectant/NP mass ratio 2)	Aggr. (visible large aggregates) ([1]; lyoprotectant/NP mass ratio 10)	Distr. No. (number of particle size distributions) ([1]; lyoprotectant/NP mass ratio 10)	PDI ([1]; lyoprotectant/NP mass ratio 10)	SL/SO (ratio of lyophilized NP size to pre-lyophilized NP size) ([1]; lyoprotectant/NP mass ratio 10)	prevention of NP aggregation during lyophilization (in words) [1]	Distr. No. (number of particle size distributions) ([1]; lyoprotectant/NP mass ratio 2)	PDI ([1]; lyoprotectant/NP mass ratio 2)	SL/SO (ratio of lyophilized NP size to pre-lyophilized NP size) ([1]; lyoprotectant/NP mass ratio 2)	Compound	tumors at injection site [2]
–	>1000	–	Y	–	–	–	could not prevent NP aggregation at all	–	–	–	O=C[C@H](O)[C@@H](O)[C@@H](O)[C@H](O)CO [Galactose]	–
–	>1000	–	Y	–	–	–	unable to prevent NP aggregation	–	–	–	NCC(=O)O [Glycine]	–
>1000	764.8	Y	Y	2	0.299	12.28	–	–	–	–	OC[C@@H](O)[C@@H](O)[C@H](O)[C@@H](O)CO [Sorbitol]	–
245.2	217.5	Y	Y	2	0.220	3.49	–	2	0.227	3.93	OC[C@H]1O[C@@](CO)(O[C@H]2O[C@H](CO)[C@@H](O)[C@H](O)[C@H]2O)[C@@H](O)[C@@H]1O [Sucrose]	–
